These are literature values, as cited in US5472628A, “Liquid detergents with an aryl acid for inhibition of proteolytic enzyme” (The Procter & Gamble Company, priority 1994, dated 1995).

The target in this series is subtilisin. To be noted: quoted in the description, read-out: Ki (inhibition constants of boronic acids for subtilisin).

With `OB(O)c1ccc(Br)cc1` [4-bromobenzene boronic acid], the Ki is 10 µM.

In general, Ki refers to a dissociation constant, usually derived from enzyme kinetics or from competition with a known ligand.
